{
  "source": "paper PMC11862990",
  "about": "“Utility of 6-aza-2-thiothymine in the synthesis of novel [1,2,4]triazolo[4,3-b][1,2,4]triazin-7-one derivatives: synthesis, structure elucidation, molecular docking and in vitro anti-lung cancer activity” (RSC Advances, 2025)",
  "type_in_all_cases": "cell-based, human",
  "key": {"[1]": {"system": "lung cancer cell lines (A549)", "assay": "DNA damage evaluation using the comet assay", "conditions": "for DNA damaged cells% (mean ± SEM): A549, comet assay, negative control 11.59 ± 0.65; for Class 0 cells (no tail) / Class 1 cells (tail length < diameter of the nucleus) / Class 2 cells (tail length between 1× and 2× the diameter of the nucleus) / Class 3 cells (tail length > 2× the diameter of the nucleus) / No. of cells: Comets: A549, of 440 cells analyzed", "experimental": "The determination of DNA damage via the comet assay was conducted using lung cancer cell lines, following the methodology established by Olive et al. (1990).[32] Following trypsin treatment to generate a single-cell suspension, approximately 1.5 × 10^4 cells were embedded in 0.75% low-gelling-temperature agarose and swiftly pipetted onto a pre-coated microscope slide.\nThe samples underwent lysis for 4 hours at 50 °C in a solution containing 0.5% SDS and 30 mM EDTA at pH 8.0. Following an overnight rinse at room temperature in a Tris/borate/EDTA buffer, pH 8.0, samples underwent electrophoresis for 25 minutes at 0.6 V cm^−1 and were subsequently stained with propidium iodide. The slides were examined with a fluorescence microscope equipped with a CCD camera, and 150 individual comet images were analyzed from each sample for a tail moment, DNA content, and percentage of DNA in the tail.\nThe non-overlapping cells were randomly selected and assigned a score on a scale of 0–3 based on the comet tail length migration and the relative proportion of DNA in the nucleus. Class 0 indicates no detectable DNA damage and no tail; class 1 indicates a tail length less than the diameter of the nucleus; class 2 indicates a tail length between 1× and 2× the nuclear diameter; and class 3 indicates a tail longer than 2× the diameter of the nucleus (Collins et al., 1997).[33]"}, "[2]": {"system": "BAX gene expression in lung cancer cell lines", "assay": "qRT-PCR gene expression, BAX", "conditions": "treated lung cancer cell line vs negative control; order 7g, Dox, 7a", "experimental": "(§1) The RNeasy Mini Kit (Qiagen, Hilden, Germany), augmented with a DNaseI (Qiagen) digestion step, was employed to extract total RNA from lung cancer cell lines following the manufacturer's procedure. The isolated total RNA was treated with one unit of RQ1 RNAse-free DNAse (Invitrogen, Germany) to eliminate DNA remnants, re-suspended in DEPC-treated water, and quantified photometrically at 260 nm. The purity of total RNA was evaluated using the 260/280 nm ratio, which ranged from 1.8 to 2.1.[27]\n(§2) Furthermore, integrity was confirmed using ethidium bromide-stained examination of 28S and 18S bands via formaldehyde-containing agarose gel electrophoresis. Aliquots were utilized immediately for reverse transcription (RT); otherwise, they were preserved at −80 °C.\n(§3) The poly(A) + RNA extracted from the lung cancer cell lines was reverse transcribed into the cDNA in a total amount of 20 μl utilizing the Revert Aid TM First Strand cDNA Synthesis Kit (Fermentas, Germany). A total of 5 μg of RNA was utilized with a master mix. The master mix comprised 50 mM MgCl2, 10× RT buffer (50 mM KCl; 10 mM Tris–HCl; pH 8.3), 10 mM of each dNTP, 50 μM oligo-dT primer, 20 IU ribonuclease inhibitor (50 kDa recombinant enzyme to suppress RNase activity), and 50 IU MuLV reverse transcriptase. Each sample mixture was centrifuged for 30 seconds at 1000 g and thereafter transferred to the thermocycler. The RT reaction was conducted at 25 °C for 10 minutes, subsequently at 42 °C for 1 hour, and concluded with a denaturation phase at 99 °C for 5 minutes. Subsequently, the reaction tubes containing RT-prepared samples were rapidly chilled in an ice chamber prior to cDNA amplification via the quantitative real-time polymerase chain reaction (qRT-PCR).\n(§4) The cDNA copy number of lung cancer cell lines was determined using the StepOne™ Real-Time PCR System from Applied Biosystems (Thermo Fisher Scientific, Waltham, MA, USA). […]\n(§5) The reaction protocol was divided into three stages. […] The relative quantification of the target gene to the reference gene was assessed using the 2^−ΔΔCT method.[29–31]"}, "[3]": {"system": "p53 gene expression in lung cancer cell lines", "assay": "qRT-PCR gene expression, p53", "conditions": "treated lung cancer cell line vs negative control; order 7g, Dox, 7a", "experimental": "as §1, §2, §3, §4, §5"}},
  "note": "Marks after values point to notes of the source that are not given here.",
  "data": [
    {"smiles": "Cc1nn2c(C)nn(-c3ccc([N+](=O)[O-])cc3)c2nc1=O", "note": "[Compound 7a, 3,6-Dimethyl-1-(4-nitrophenyl)-[1,2,4]triazolo[4,3-b][1,2,4]triazin-7(1H)-one]", "values": [
      {"measurement": "DNA damaged cells% (mean ± SEM)", "setting": "[1]", "value": "28.18 ± 1.25^a %"},
      {"measurement": "Class 0 cells (no tail)", "setting": "[1]", "value": 316},
      {"measurement": "Class 1 cells (tail length < diameter of the nucleus)", "setting": "[1]", "value": 37},
      {"measurement": "Class 2 cells (tail length between 1× and 2× the diameter of the nucleus)", "setting": "[1]", "value": 45},
      {"measurement": "Class 3 cells (tail length > 2× the diameter of the nucleus)", "setting": "[1]", "value": 42},
      {"measurement": "No. of cells: Comets", "setting": "[1]", "value": 124},
      {"measurement": "BAX (pro-apoptotic gene) expression level", "setting": "[2]", "value": "elevated"},
      {"measurement": "p53 (pro-apoptotic gene) expression level", "setting": "[3]", "value": "elevated"}
    ]},
    {"smiles": "COc1ccc(-c2nn(-c3ccccc3)c3nc(=O)c(C)nn23)cc1", "note": "[Compound 7g, 3-(4-Methoxyphenyl)-6-methyl-1-phenyl-[1,2,4]triazolo[4,3-b][1,2,4]triazin-7(1H)-one]", "values": [
      {"measurement": "DNA damaged cells% (mean ± SEM)", "setting": "[1]", "value": "21.14 ± 0.85^b %"},
      {"measurement": "Class 0 cells (no tail)", "setting": "[1]", "value": 347},
      {"measurement": "Class 1 cells (tail length < diameter of the nucleus)", "setting": "[1]", "value": 32},
      {"measurement": "Class 2 cells (tail length between 1× and 2× the diameter of the nucleus)", "setting": "[1]", "value": 38},
      {"measurement": "Class 3 cells (tail length > 2× the diameter of the nucleus)", "setting": "[1]", "value": 23},
      {"measurement": "No. of cells: Comets", "setting": "[1]", "value": 93},
      {"measurement": "BAX (pro-apoptotic gene) expression level", "setting": "[2]", "value": "elevated"},
      {"measurement": "p53 (pro-apoptotic gene) expression level", "setting": "[3]", "value": "elevated"}
    ]},
    {"smiles": "COc1cccc2c1C(=O)c1c(O)c3c(c(O)c1C2=O)C[C@@](O)(C(=O)CO)C[C@@H]3O[C@H]1C[C@H](N)[C@H](O)[C@H](C)O1", "note": "[Dox, Doxorubicin, reference compound]", "values": [
      {"measurement": "DNA damaged cells% (mean ± SEM)", "setting": "[1]", "value": "23.86 ± 1.11^b %"},
      {"measurement": "Class 0 cells (no tail)", "setting": "[1]", "value": 335},
      {"measurement": "Class 1 cells (tail length < diameter of the nucleus)", "setting": "[1]", "value": 34},
      {"measurement": "Class 2 cells (tail length between 1× and 2× the diameter of the nucleus)", "setting": "[1]", "value": 41},
      {"measurement": "Class 3 cells (tail length > 2× the diameter of the nucleus)", "setting": "[1]", "value": 30},
      {"measurement": "No. of cells: Comets", "setting": "[1]", "value": 105},
      {"measurement": "BAX (pro-apoptotic gene) expression level", "setting": "[2]", "value": "elevated"},
      {"measurement": "p53 (pro-apoptotic gene) expression level", "setting": "[3]", "value": "elevated"}
    ]}
  ]
}
